Usually IC50 stands for the concentration needed to halve the response being measured.

What all share (format): cell-based
Test [1] addresses T1, EGFR exon 20 NPG Ins D770_N771 (Ba/F3 cells) (Homo sapiens, UniProt P00533, INS770NPG).
T1 construct: expressed in transfected cells; host or cells: Ba/F3 (murine pro-B cells), retroviral transduction, puromycin selection, IL3-independent pool
Kind of test: Inhibitor activity on EGFR-dependent cell growth (CellTiter-Glo, 72 h), Ba/F3 EGFR exon 20 NPG Ins. The note with it: read-out: BaF3 NPG IC50. The text has this:
Example A. Inhibitor Activity on EGFR-Dependent Cell Growth
Cell lines are generated by transducing Ba/F3 cells with retroviruses containing vectors with EGFR WT, EGFR L858R, EGFR exon 19del, EGFR L858R/C797S, EGFR exon 20 NPG Ins D770_N771, EGFR exon 20 ASV Ins V769_D770, EGFR exon 20 SVD Ins D770_N771, or EGFR exon 20 FQEA Ins A763_V764 genes and a puromycin selection marker. Transduced cells are selected with puromycin for 7 days and are then be transferred into culture media without Interleukin 3 (IL3). EGFR WT cells are maintained with supplemental EGF. Surviving cells are confirmed to express EGFR by Western blot and maintained as a pool. The IC50 date were included in Table 6 and Table 7.
1.1 Cells are harvested from flask into cell culture medium and the cell number counted.
1.2 Cells are diluted with culture medium to the desired density and 40 μL of cell suspension is added into each well of 384-well cell culture plate and the seeding density is 800 (FQEA, exon 19del), 600 (WT, NPG, L858R/C797S), or 400 (ASV, SVD, L858R) cells/well.
2 Compound Preparation and Treatment
2.1 Test compounds are dissolved to 10 mM in a DMSO stock solution. 45 μL of stock solution is transferred to a 384 polypropylene plate (pp-plate). Perform 3-fold, 10-point dilution via transferring 15 μL compound into 30 μL DMSO using a TECAN (EVO200) liquid handler.
2.2 Spin plates at room temperature at 1,000 RPM for 1 minute.
2.3 Transfer 120 nL of diluted compound from compound source plate into the cell plate.
2.4 After compound treatment for 72 hours, perform CTG detection for compound treatment plates as described in “Detection” section.
3.1 Plates are removed from incubators and equilibrated at room temperature for 15 minutes.
3.2 Thaw the CellTiter Glo reagents and allow to equilibrate to room temperature before the experiment.
3.3 Add 40 μL of CellTiter-Glo reagent into each well (at 1:1 to culture medium). Then place the plates at room temperature for 30 min followed by reading on EnVision.
4.1 Inhibition activity is calculated following the formula below:
% Inhibition=100×(LumHC−LumSample)/(LumHC−LumLC) • where HC is obtained from cells treated with 0.1% DMSO only; and LC is obtained from culture medium only.
4.2 2. Calculate the IC50 by fitting the Curve using Xlfit (v5.3.1.3), equation 201.
Y=Bottom+(Top−Bottom)/(1+10^((Log IC50−X)*HillSlope))
(In general: ATP-based viability assays read luminescence as a measure of living cells.)

A further test deals with T2, EGFR WT (Ba/F3 cells) (Homo sapiens, UniProt P00533).
T2 construct: expressed in transfected cells; host or cells: Ba/F3 (murine pro-B cells), retroviral transduction, puromycin selection, maintained with EGF
T2 sequence (P00533 25-1210): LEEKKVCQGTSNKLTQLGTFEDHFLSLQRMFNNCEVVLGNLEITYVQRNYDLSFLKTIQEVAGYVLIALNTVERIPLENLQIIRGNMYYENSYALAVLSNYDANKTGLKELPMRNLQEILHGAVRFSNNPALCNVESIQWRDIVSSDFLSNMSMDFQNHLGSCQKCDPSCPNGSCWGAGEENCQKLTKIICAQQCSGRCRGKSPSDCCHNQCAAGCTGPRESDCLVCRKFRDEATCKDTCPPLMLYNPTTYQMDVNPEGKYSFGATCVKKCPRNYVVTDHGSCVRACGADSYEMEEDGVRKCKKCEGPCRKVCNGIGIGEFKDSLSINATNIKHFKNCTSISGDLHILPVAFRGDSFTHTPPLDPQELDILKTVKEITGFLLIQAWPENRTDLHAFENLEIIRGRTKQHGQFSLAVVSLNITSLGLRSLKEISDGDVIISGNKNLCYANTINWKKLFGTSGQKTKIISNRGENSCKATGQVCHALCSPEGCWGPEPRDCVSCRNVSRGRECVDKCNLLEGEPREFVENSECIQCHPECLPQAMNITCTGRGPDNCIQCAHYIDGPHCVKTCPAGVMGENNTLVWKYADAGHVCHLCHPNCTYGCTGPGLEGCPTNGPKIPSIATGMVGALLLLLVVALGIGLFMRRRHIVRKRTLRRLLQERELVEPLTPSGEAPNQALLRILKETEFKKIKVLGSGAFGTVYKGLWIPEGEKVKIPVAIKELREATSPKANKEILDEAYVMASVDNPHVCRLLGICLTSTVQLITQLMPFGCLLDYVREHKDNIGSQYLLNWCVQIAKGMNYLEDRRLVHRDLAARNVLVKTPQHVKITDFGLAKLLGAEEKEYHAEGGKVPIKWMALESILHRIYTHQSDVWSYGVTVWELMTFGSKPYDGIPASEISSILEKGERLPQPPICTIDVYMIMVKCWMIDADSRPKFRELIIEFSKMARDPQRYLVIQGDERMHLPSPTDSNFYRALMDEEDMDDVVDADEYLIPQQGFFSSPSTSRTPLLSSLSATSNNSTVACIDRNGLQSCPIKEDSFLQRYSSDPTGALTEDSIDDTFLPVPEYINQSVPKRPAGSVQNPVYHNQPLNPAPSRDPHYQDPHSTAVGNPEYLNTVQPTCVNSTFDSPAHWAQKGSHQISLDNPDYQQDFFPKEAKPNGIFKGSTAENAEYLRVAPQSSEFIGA
Kind of test: Inhibitor activity on EGFR-dependent cell growth (CellTiter-Glo, 72 h), Ba/F3 EGFR WT. The note with it: read-out: BaF3 WT IC50. In outline: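 This growth assay used Ba/F3 cells that depend on wild-type EGFR and are kept in EGF without IL3. Compounds were made up as 10 mM DMSO stocks and diluted 3-fold over 10 points. 120 nL went onto 600 cells/well. After 72 hours, 40 μL CellTiter-Glo was added and luminescence read on EnVision after 30 min.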

In test [2] the target is T3, EGFR exon 20 FQEA Ins A763_V764 (Ba/F3 cells) (Homo sapiens, UniProt P00533, INS763FQEA).
T3 construct: expressed in transfected cells; host or cells: Ba/F3 (murine pro-B cells), retroviral transduction, puromycin selection, IL3-independent pool
T3 sequence (P00533 with tags, fused parts or gaps INS763FQEA): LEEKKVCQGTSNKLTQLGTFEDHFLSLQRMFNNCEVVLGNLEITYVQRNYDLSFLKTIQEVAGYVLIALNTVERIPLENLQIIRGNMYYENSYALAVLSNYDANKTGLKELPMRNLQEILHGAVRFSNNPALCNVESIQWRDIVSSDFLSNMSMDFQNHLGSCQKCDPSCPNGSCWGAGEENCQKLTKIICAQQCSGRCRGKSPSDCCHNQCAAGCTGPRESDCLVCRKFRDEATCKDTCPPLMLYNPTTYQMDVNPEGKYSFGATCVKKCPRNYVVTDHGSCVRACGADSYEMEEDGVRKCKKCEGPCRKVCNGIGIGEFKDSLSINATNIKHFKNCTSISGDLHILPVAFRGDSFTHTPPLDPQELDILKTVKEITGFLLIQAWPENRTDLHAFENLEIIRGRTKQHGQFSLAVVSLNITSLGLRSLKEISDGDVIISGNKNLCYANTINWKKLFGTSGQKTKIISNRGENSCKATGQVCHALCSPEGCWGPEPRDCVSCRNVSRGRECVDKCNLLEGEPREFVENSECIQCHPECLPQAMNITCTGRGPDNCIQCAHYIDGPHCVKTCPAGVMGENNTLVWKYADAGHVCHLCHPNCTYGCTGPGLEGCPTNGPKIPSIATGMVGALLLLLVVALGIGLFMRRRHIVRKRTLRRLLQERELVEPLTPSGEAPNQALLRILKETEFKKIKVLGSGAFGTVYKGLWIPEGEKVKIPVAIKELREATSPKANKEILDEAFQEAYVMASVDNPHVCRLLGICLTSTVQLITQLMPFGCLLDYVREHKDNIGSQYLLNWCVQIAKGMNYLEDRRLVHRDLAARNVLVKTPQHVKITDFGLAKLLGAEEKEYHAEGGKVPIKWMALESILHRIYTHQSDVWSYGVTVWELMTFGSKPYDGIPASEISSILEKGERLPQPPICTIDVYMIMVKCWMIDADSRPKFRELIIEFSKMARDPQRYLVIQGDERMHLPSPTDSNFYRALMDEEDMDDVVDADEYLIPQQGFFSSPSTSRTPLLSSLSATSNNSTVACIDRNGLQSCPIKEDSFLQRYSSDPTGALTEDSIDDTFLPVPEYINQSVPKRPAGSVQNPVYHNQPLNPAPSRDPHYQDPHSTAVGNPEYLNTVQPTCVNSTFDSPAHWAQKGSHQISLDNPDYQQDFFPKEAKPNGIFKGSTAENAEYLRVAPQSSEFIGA
Kind of test: Inhibitor activity on EGFR-dependent cell growth (CellTiter-Glo, 72 h), Ba/F3 EGFR exon 20 FQEA Ins. The note with it: read-out: BaF3 FQEA IC50. In outline: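 For each mutant line, growth depends on EGFR signalling in the absence of IL3. Density per well: 400 for L858R, 600 for the C797S double mutant, 800 for exon 19del and FQEA. Ten threefold dilutions were applied for 72 h. %Inhibition = 100×(DMSO − sample)/(DMSO − medium blank).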

The target in test [3] is T4, EGFR exon 20 ASV Ins V769_D770 (Ba/F3 cells) (Homo sapiens, UniProt P00533, INS769ASV).
T4 construct: expressed in transfected cells; host or cells: Ba/F3 (murine pro-B cells), retroviral transduction, puromycin selection, IL3-independent pool
T4 sequence (P00533 with tags, fused parts or gaps INS769ASV): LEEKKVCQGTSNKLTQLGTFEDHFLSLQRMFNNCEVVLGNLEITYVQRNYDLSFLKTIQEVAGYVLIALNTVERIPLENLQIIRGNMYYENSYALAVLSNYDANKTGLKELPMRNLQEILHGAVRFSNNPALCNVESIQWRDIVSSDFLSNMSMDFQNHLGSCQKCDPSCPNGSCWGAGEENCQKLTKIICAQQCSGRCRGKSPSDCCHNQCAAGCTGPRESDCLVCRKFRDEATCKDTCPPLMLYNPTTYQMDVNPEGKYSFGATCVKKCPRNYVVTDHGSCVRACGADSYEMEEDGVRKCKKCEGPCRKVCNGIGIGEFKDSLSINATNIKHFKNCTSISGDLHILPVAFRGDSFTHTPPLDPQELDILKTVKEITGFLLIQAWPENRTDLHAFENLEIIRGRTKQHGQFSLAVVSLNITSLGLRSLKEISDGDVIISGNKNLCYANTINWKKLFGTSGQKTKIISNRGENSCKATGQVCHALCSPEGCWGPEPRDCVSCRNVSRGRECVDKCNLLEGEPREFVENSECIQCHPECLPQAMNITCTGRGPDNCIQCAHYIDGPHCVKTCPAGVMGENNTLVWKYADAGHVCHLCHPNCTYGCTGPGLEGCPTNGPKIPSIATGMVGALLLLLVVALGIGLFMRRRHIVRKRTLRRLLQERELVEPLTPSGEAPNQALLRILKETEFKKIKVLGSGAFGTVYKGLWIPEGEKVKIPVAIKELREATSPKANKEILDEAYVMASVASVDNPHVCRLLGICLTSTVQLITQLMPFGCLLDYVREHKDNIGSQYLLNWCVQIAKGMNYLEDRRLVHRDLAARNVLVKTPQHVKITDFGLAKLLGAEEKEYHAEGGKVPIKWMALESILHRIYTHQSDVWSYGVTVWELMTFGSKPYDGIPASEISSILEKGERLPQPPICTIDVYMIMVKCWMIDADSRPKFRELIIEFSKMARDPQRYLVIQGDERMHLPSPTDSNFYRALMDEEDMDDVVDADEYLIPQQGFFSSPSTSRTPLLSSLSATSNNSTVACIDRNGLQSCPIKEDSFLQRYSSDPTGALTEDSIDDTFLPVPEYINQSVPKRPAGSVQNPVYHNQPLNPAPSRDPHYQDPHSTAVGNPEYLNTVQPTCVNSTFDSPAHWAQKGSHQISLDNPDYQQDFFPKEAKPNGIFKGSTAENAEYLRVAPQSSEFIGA
Kind of test: Inhibitor activity on EGFR-dependent cell growth (CellTiter-Glo, 72 h), Ba/F3 EGFR exon 20 ASV Ins. The note with it: read-out: BaF3 ASV IC50. In outline: (§1)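 IC50s derive from a sigmoidal dose–response fit of CellTiter-Glo signal. The signal was normalised between […]-treated cells and cell-free medium. Ba/F3 mutant-EGFR cells, seeded at 400–800/well depending on the line, had 72 h of exposure to a 10-point, 3-fold compound series.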

Test [4] deals with T5, EGFR exon 20 SVD Ins D770_N771 (Ba/F3 cells) (Homo sapiens, UniProt P00533, INS770SVD).
T5 construct: expressed in transfected cells; host or cells: Ba/F3 (murine pro-B cells), retroviral transduction, puromycin selection, IL3-independent pool
T5 sequence (P00533 with tags, fused parts or gaps INS770SVD): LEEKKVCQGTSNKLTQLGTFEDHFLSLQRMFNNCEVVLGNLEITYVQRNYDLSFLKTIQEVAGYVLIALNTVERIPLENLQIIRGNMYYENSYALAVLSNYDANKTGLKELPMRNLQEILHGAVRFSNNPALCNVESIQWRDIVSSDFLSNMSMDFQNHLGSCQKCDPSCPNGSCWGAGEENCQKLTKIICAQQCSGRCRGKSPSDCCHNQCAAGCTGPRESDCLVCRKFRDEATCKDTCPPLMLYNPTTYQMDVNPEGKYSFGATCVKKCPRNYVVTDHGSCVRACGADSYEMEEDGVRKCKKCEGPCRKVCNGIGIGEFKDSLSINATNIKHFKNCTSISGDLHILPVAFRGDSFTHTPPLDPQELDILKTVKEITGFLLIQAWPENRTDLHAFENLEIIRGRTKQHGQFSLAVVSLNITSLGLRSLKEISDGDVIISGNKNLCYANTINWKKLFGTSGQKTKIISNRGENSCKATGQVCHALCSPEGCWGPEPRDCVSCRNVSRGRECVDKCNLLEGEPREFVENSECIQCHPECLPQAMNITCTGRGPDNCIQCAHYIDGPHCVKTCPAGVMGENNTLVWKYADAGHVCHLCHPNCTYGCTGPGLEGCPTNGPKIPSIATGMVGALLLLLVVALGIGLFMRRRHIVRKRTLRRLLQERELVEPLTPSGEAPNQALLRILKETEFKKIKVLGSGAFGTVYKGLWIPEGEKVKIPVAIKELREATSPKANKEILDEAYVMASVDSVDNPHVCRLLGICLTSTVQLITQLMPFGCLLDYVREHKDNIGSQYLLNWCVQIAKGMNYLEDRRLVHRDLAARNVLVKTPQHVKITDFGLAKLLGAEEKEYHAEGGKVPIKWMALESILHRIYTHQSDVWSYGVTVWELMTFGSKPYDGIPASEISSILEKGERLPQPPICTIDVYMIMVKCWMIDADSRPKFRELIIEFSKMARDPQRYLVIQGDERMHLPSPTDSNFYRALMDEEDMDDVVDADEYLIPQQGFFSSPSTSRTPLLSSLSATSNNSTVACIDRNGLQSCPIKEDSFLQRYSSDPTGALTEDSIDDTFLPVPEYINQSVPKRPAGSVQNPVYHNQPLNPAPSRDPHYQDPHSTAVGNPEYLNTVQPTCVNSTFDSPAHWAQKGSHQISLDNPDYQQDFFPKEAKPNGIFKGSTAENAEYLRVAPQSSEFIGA
Kind of test: Inhibitor activity on EGFR-dependent cell growth (CellTiter-Glo, 72 h), Ba/F3 EGFR exon 20 SVD Ins. The note with it: read-out: BaF3 SVD IC50. In outline:
as §1

Take `COCCOc1cncnc1-c1[nH]c2c(c1Nc1cccc(F)c1OC)C(=O)NCC2` [Compound 676, 3-[(3-fluoro-2-methoxyphenyl)amino]-2-[5-(2-methoxyethoxy)pyrimidin-4-yl]-1H,5H,6H,7H-pyrrolo[3,2-c]pyridin-4-one]: the IC50 (in test [1]; on EGFR WT (Ba/F3 cells)) was > 1000 nM in each case.

On to `COc1c(Cl)cccc1Nc1c(-c2ccncc2F)[nH]c2c1C(=O)NC[C@@H]2CCN1CCOCC1` [compound 485, (7S)-3-[(3-chloro-2-methoxyphenyl)amino]-2-(3-fluoropyridin-4-yl)-7-[2-(morpholin-4-yl)ethyl]-1H,5H,6H,7H-pyrrolo[3,2-c]pyridin-4-one], for which the IC50 (in test [2]; in test [3]; in test [4]; on EGFR WT (Ba/F3 cells)) was > 1000 nM each time.

As for `COc1c(Cl)cccc1Nc1c(-c2ccnc(NC[C@@H]3COCCO3)n2)[nH]c2c1C(=O)NCC2` [compound 724, 3-[(3-chloro-2-methoxyphenyl)amino]-2-[2-[(1,4-dioxan-2-ylmethyl)amino]pyrimidin-4-yl]-1H,5H,6H,7H-pyrrolo[3,2-c]pyridin-4-one], the IC50 was > 1000 nM in test [2], 100 to 1000 nM in test [3], 100 to 1000 nM in test [4] and > 1000 nM on EGFR WT (Ba/F3 cells).

For the compound `COc1cc2c(-c3[nH]c4c(c3Nc3cccc(Cl)c3OC)C(=O)NCC4)ccnc2cn1` [Compound 772, 3-[(3-chloro-2-methoxyphenyl)amino]-2-(6-methoxy-1,7-naphthyridin-4-yl)-1H,5H,6H,7H-pyrrolo[3,2-c]pyridin-4-one], the IC50 (in test [2]; in test [3]; in test [4]; on EGFR WT (Ba/F3 cells)) was > 1000 nM throughout.

On to `COc1c(Cl)cccc1Nc1c(-c2ccncc2F)[nH]c2c1C(=O)NCC21CCOC1` (single isomer, unassigned) [Compound 782], for which the IC50 in test [2] is 100 to 1000 nM; in test [3], 100 to 1000 nM; in test [4] it was 100 to 1000 nM; on EGFR WT (Ba/F3 cells), > 1000 nM.

On to `COc1c(Cl)cccc1Nc1c(-c2ccnc3ccc(OC4CC4)nc23)[nH]c2c1C(=O)NCC21CC1` [compound 323], for which the IC50 in test [2] was < 100 nM; in test [3] it was < 100 nM; in test [4] it was < 100 nM; on EGFR WT (Ba/F3 cells), 100 to 1000 nM.

As for `COc1nc2c(-c3[nH]c4c(c3Nc3cccc(Cl)c3OC)C(=O)NCC4)ccnc2cc1F` [compound 477, 3-[(3-chloro-2-methoxyphenyl)amino]-2-(7-fluoro-6-methoxy-1,5-naphthyridin-4-yl)-1H,5H,6H,7H-pyrrolo[3,2-c]pyridin-4-one], the IC50 in test [2] is < 100 nM; in test [3] it was < 100 nM; in test [4] it was < 100 nM; at EGFR WT (Ba/F3 cells) it was 100 to 1000 nM.

Take `COc1c(Cl)cccc1Nc1c(-c2ccnc3ccc(OC4CC4)nc23)[nH]c2c1C(=O)NCC2` [compound 677, 3-[(3-chloro-2-methoxyphenyl)amino]-2-(6-cyclopropoxy-1,5-naphthyridin-4-yl)-1H,5H,6H,7H-pyrrolo[3,2-c]pyridin-4-one]: the IC50 (in test [2]; in test [3]; in test [4]; on EGFR WT (Ba/F3 cells)) was < 100 nM throughout.

On to `COc1c(Cl)cccc1Nc1c(-c2ccncc2F)[nH]c2c1C(=O)NC[C@@]21CCN(C)C1` [compound 816], for which the IC50 in test [2] was 100 to 1000 nM; in test [3], 100 to 1000 nM; in test [4], 100 to 1000 nM; on EGFR WT (Ba/F3 cells), > 1000 nM.

Regarding `COc1c(Cl)cccc1Nc1c(-c2ccncc2F)[nH]c2c1C(=O)NC[C@@]21CCOC1` (single isomer, unassigned) [Compound 781], the IC50 is 100 to 1000 nM in test [2], 100 to 1000 nM in test [3], 100 to 1000 nM in test [4] and > 1000 nM at EGFR WT (Ba/F3 cells).

As to `COc1c(Cl)cccc1Nc1c(-c2ccnc(Nc3cnn(C4CCOCC4)c3)n2)[nH]c2c1C(=O)NCC2` [compound 517, 3-[(3-chloro-2-methoxyphenyl)amino]-2-(2-{[1-(oxan-4-yl)pyrazol-4-yl]amino}pyrimidin-4-yl)-1H,5H,6H,7H-pyrrolo[3,2-c]pyridin-4-one], the IC50 in test [2] was 100 to 1000 nM; in test [3], < 100 nM; in test [4] it was < 100 nM; at EGFR WT (Ba/F3 cells) it was 100 to 1000 nM.

`COc1ccc2nccc(-c3[nH]c4c(c3Nc3cccc(Cl)c3OC)C(=O)NC[C@@H]4CCF)c2n1` [Compound 744, (S)-3-((3-chloro-2-methoxyphenyl)amino)-7-(2-fluoroethyl)-2-(6-methoxy-1,5-naphthyridin-4-yl)-1,5,6,7-tetrahydro-4H-pyrrolo[3,2-c]pyridin-4-one]: the IC50 (in test [2]; in test [3]; in test [4]; on EGFR WT (Ba/F3 cells)) was < 100 nM each time.

For the compound `COc1c(Cl)cccc1Nc1c(-c2ccnc(NCc3ccn(C)n3)n2)[nH]c2c1C(=O)NCC2` [Compound 709, 3-[(3-chloro-2-methoxyphenyl)amino]-2-(2-[[(1-methylpyrazol-3-yl)methyl]amino]pyrimidin-4-yl)-1H,5H,6H,7H-pyrrolo[3,2-c]pyridin-4-one], the IC50 in test [2] is 100 to 1000 nM; in test [3] it was < 100 nM; in test [4] it was < 100 nM; at EGFR WT (Ba/F3 cells), 100 to 1000 nM.

`COc1c(Cl)cccc1Nc1c(-c2ccnc3cnc(OC4CC4)nc23)[nH]c2c1C(=O)NCC2` [Compound 771, 3-[(3-chloro-2-methoxyphenyl)amino]-2-{2-cyclopropoxypyrido[3,2-d]pyrimidin-8-yl}-1H,5H,6H,7H-pyrrolo[3,2-c]pyridin-4-one]: the IC50 (in test [2]; in test [3]; in test [4]; at EGFR WT (Ba/F3 cells)) was < 100 nM each time.

Take `COC[C@H]1CNC(=O)c2c1[nH]c(-c1ccnc3ccc(OC)nc13)c2Nc1cccc(Cl)c1OC` [Compound 764, (7S)-3-[(3-chloro-2-methoxyphenyl)amino]-2-(6-methoxy-1,5-naphthyridin-4-yl)-7-(methoxymethyl)-1H,5H,6H,7H-pyrrolo[3,2-c]pyridin-4-one]: the half-inhibitory concentration (IC50) (in test [2]; in test [3]; in test [4]; on EGFR WT (Ba/F3 cells)) was < 100 nM in each case.

Consider `COc1ncc2nccc(-c3[nH]c4c(c3Nc3c(F)cccc3F)C(=O)NCC4)c2n1` [Compound 806, 3-[(2,6-difluorophenyl)amino]-2-[2-methoxypyrido[3,2-d]pyrimidin-8-yl]-1H,5H,6H,7H-pyrrolo[3,2-c]pyridin-4-one], for which the IC50 is 100 to 1000 nM in test [2], > 1000 nM in test [3], > 1000 nM in test [4] and > 1000 nM on EGFR WT (Ba/F3 cells).

For `COc1ncc2nccc(-c3[nH]c4c(c3Nc3cccc(Cl)c3C)C(=O)NCC4)c2n1` [Compound 793, 3-[(3-chloro-2-methylphenyl)amino]-2-[2-methoxypyrido[3,2-d]pyrimidin-8-yl]-1H,5H,6H,7H-pyrrolo[3,2-c]pyridin-4-one], the IC50 in test [2] is < 100 nM; in test [3] it was < 100 nM; in test [4], < 100 nM; at EGFR WT (Ba/F3 cells), 100 to 1000 nM.

Values taken from patent US20240101576A1, “HETEROCYCLIC INHIBITORS OF EGFR AND/OR HER2, FOR USE IN THE TREATMENT OF CANCER” (Scorpion Therapeutics, Inc., priority 2020, published 2024).
